How the values were obtained:
RAW 264.7 macrophages = test: In vitro MTT assay, proliferation of RAW 264.7 macrophages; assay type: cell-based, mouse; details: 200 μg ml-1, 48 h
Experimental: The effect of Brevisan, Microsan and M-EPS-Au-NP on the proliferation of RAW 264.7 macrophages (ATCC No. CRL-2278) was measured by in vitro MTT assay using the previously described method [Mosmann, T. (1983) J. Immunol. Methods 65, 55-63], which is based on the cell-mediated reduction of tetrazolium salt to form water insoluble formazan crystals. The MTT assay was performed with different concentrations (1-200 μg ml-1) of Brevisan, Microsan and M-EPS-Au-NP were incubated for 48 h using laminarin as a control.

erythrocytes = test: Erythrocyte hemolysis assay (H2O2); assay type: cell-based; details: human erythrocytes, H2O2, 37° C., 30 min
Experimental: The antioxidant activity of Microsan from Microbacterium sp. strain BS-2 and Brevisan from Brevibacillus sp. strain BS-207 in cell free system was measured by its inhibitory activity on the generation of DPPH free radicals, superoxide anions (O^2−), lipid peroxidation and erythrocyte hemolysis. The DPPH free radical scavenging assay was performed using 2,2-diphenyl-1-picrylhydrazyl (DPPH) free radical scavenging method [Ara. N. and Hasan, N. (2009) Res. J. Med. Medical Sci. 4, 107-110]. Different concentrations of Microsan and Brevisan were mixed individually with 150 μl of 160 μM methanolic solution of DPPH and incubated at 35° C. for 30 min in dark. The effective concentration (EC50) was calculated by measuring the absorbance of the samples at 517 nm. The superoxide anion scavenging was measured using phenazine methosulfate-nicotinamide adenine dinucleotide (PMS/NADH) method as previously described [Liu, F., Ooi, V. E. and Chang, S. T. (1997) Life Sci. 60, 763-771]. The lipid peroxidation assay was performed using the previously described method [Zhang, Q., Yu, P., Li, Z., Zhang, H., Xu, Z. and Li, P. (2003) J. Appl. Phycol. 15, 305-310] which is based on measuring the lipid peroxide decomposed product malondialdehyde (MDA). […] Samples were incubated at 37° C. for 30 min and the absorbance was measured at 540 nm. […]

Question: “β-D-glucuronyl-(1-2)-D-mannosyl-(1-4)-D-glucose [Microsan]” was tested. Which “cell proliferation (MTT)” value (RAW 264.7 macrophages) did it give?
Answer: Its value is 89.07%.

Question: What about the “EC50 erythrocyte hemolysis inhibition” value (erythrocytes) of the same substance?
Answer: The value was 139.28 µg/mL.
